Measured values from patent US11235976B2, “Nanocarbon-iron composite system as well as composition, preparation method and use thereof” (Chongqing Lummy Pharmaceutical Co., LTD, priority 2017, dated 2022).

These substances were tested on SKOV3 ovarian cancer cells (assay: Cell experiment, cell survival rate). Conditions: iron preparation alone 0.43 μg/mL, 48 h.
Assay type: cell-based
Description: (§1) Cells growing in a log phase are collected, the concentration of the cell suspension is adjusted, 100 μL of cell suspension is added to each well and the cells are plated (edge wells are filled with sterile PBS) at a density of 1×10^3-10^4 cells/well. The cells are incubated for 24 hours at 37° C. under the condition of 5% CO2, a nanocarbon-iron solution having a concentration gradient (nanocarbon content: 125, 62.5, 15.63 and 3.91 μg/mL; and ferric ion content: 13.65, 6.83, 1.71 and 0.43 μg/mL) is added, and three sub-wells are set. Then the cells are incubated for 48 hours at 37° C. under the condition of 5% CO2. 10 μL of CCK8 solution is added to each well and then the cells are continuously incubated for 2 hours. The absorbance of each well is measured at OD=450 nm with the microplate reader. In addition, a negative control group, nanocarbon control groups having the same concentration and iron preparation control groups having the same concentration are set.
as §1, with “and 1” for “100”, “of a 6-well plate” for “and the cells are plated (edge wells are filled with sterile PBS)”, “3×10^4” for “1×10^3-10^4”, “1.71,” for “1.71 and”, “The” for “10 μL of CCK8 solution is added to each well and then the”, “trypsinized and counted.” for “continuously incubated for 2 hours. The absorbance of each well is measured at OD=450 nm with the microplate reader.”

Substance	Cell Survival Rate
ferrous sulfate	97.89%

Same assay, conditions: iron preparation alone 1.71 μg/mL, 48 h

Substance	Cell Survival Rate
ferrous sulfate	100%

Same assay, conditions: iron preparation alone 6.83 μg/mL, 48 h

Substance	Cell Survival Rate
ferrous sulfate	95.78%

Same assay, conditions: iron preparation alone 13.65 μg/mL, 48 h

Substance	Cell Survival Rate
ferrous sulfate	96.47%

What follows are substances tested on Hela cervical cancer cells (assay: Cell experiment, cell survival rate). Conditions: iron preparation alone 0.43 μg/mL, 48 h.
Assay type: cell-based
Description: as §1
as §1, with “and 1” for “100”, “of a 6-well plate” for “and the cells are plated (edge wells are filled with sterile PBS)”, “3×10^4” for “1×10^3-10^4”, “1.71,” for “1.71 and”, “The” for “10 μL of CCK8 solution is added to each well and then the”, “trypsinized and counted.” for “continuously incubated for 2 hours. The absorbance of each well is measured at OD=450 nm with the microplate reader.”

Substance	Cell Survival Rate
ferrous sulfate	100%

Same assay, conditions: iron preparation alone 1.71 μg/mL, 48 h

Substance	Cell Survival Rate
ferrous sulfate	100%

Same assay, conditions: iron preparation alone 6.83 μg/mL, 48 h

Substance	Cell Survival Rate
ferrous sulfate	100%

Same assay, conditions: iron preparation alone 13.65 μg/mL, 48 h

Substance	Cell Survival Rate
ferrous sulfate	93.99%

What follows are substances tested on SMMC7721 liver cancer cells (assay: Cell experiment, cell survival rate). Conditions: SMMC-7721; iron preparation alone 0.43 μg/mL; 48 h.
Assay type: cell-based
Description: as §1
as §1, with “and 1” for “100”, “of a 6-well plate” for “and the cells are plated (edge wells are filled with sterile PBS)”, “3×10^4” for “1×10^3-10^4”, “1.71,” for “1.71 and”, “The” for “10 μL of CCK8 solution is added to each well and then the”, “trypsinized and counted.” for “continuously incubated for 2 hours. The absorbance of each well is measured at OD=450 nm with the microplate reader.”

Substance	Cell Survival Rate
ferrous sulfate	100%

Same assay, conditions: SMMC-7721; iron preparation alone 1.71 μg/mL; 48 h

Substance	Cell Survival Rate
ferrous sulfate	100%

Same assay, conditions: SMMC-7721; iron preparation alone 6.83 μg/mL; 48 h

Substance	Cell Survival Rate
ferrous sulfate	100%

Same assay, conditions: SMMC-7721; iron preparation alone 13.65 μg/mL; 48 h

Substance	Cell Survival Rate
ferrous sulfate	97.46%

These substances were tested on SGC-7901 stomach cancer cells (assay: Cell experiment, cell survival rate). Conditions: iron preparation alone 0.43 μg/mL, 48 h.
Assay type: cell-based
Description: as §1
as §1, with “and 1” for “100”, “of a 6-well plate” for “and the cells are plated (edge wells are filled with sterile PBS)”, “3×10^4” for “1×10^3-10^4”, “1.71,” for “1.71 and”, “The” for “10 μL of CCK8 solution is added to each well and then the”, “trypsinized and counted.” for “continuously incubated for 2 hours. The absorbance of each well is measured at OD=450 nm with the microplate reader.”

Substance	Cell Survival Rate
ferrous sulfate	100%

Same assay, conditions: iron preparation alone 1.71 μg/mL, 48 h

Substance	Cell Survival Rate
ferrous sulfate	93.78%

Same assay, conditions: iron preparation alone 6.83 μg/mL, 48 h

Substance	Cell Survival Rate
ferrous sulfate	98.42%

Same assay, conditions: iron preparation alone 13.65 μg/mL, 48 h

Substance	Cell Survival Rate
ferrous sulfate	100%

Each substance was assayed on MDA-MB-231 breast cancer cells (assay: Cell experiment, cell survival rate). Conditions: iron preparation alone 0.43 μg/mL, 48 h.
Assay type: cell-based
Description: as §1
as §1, with “and 1” for “100”, “of a 6-well plate” for “and the cells are plated (edge wells are filled with sterile PBS)”, “3×10^4” for “1×10^3-10^4”, “1.71,” for “1.71 and”, “The” for “10 μL of CCK8 solution is added to each well and then the”, “trypsinized and counted.” for “continuously incubated for 2 hours. The absorbance of each well is measured at OD=450 nm with the microplate reader.”

Substance	Cell Survival Rate
ferrous sulfate	100%

Same assay, conditions: iron preparation alone 1.71 μg/mL, 48 h

Substance	Cell Survival Rate
ferrous sulfate	100%

Same assay, conditions: iron preparation alone 6.83 μg/mL, 48 h

Substance	Cell Survival Rate
ferrous sulfate	100%

Same assay, conditions: iron preparation alone 13.65 μg/mL, 48 h

Substance	Cell Survival Rate
ferrous sulfate	100%

What follows are substances tested on HCT116 colon cancer cells (assay: Cell experiment, cell survival rate). Conditions: iron preparation alone 0.43 μg/mL, 48 h.
Assay type: cell-based
Description: as §1
as §1, with “and 1” for “100”, “of a 6-well plate” for “and the cells are plated (edge wells are filled with sterile PBS)”, “3×10^4” for “1×10^3-10^4”, “1.71,” for “1.71 and”, “The” for “10 μL of CCK8 solution is added to each well and then the”, “trypsinized and counted.” for “continuously incubated for 2 hours. The absorbance of each well is measured at OD=450 nm with the microplate reader.”

Substance	Cell Survival Rate
ferrous sulfate	98.32%

Same assay, conditions: iron preparation alone 1.71 μg/mL, 48 h

Substance	Cell Survival Rate
ferrous sulfate	100%

Same assay, conditions: iron preparation alone 6.83 μg/mL, 48 h

Substance	Cell Survival Rate
ferrous sulfate	97.68%
